Measured values published in patent US10022342B2, “Methods and compositions for treating multiple myeloma” (Ohio State Innovation Foundation, priority 2015, dated 2018).
pIC50: −log10 of the molar value.

Tests used:
MM cells = assay: IC50 concentrations of HDAC inhibitors in MM cells; format: cell-based; conditions: Homo sapiens
miR-9-5p = miR-9-5p expression by stem loop qRT-PCR; format: cell-based, human; conditions: 24 hours, dose dependent, vs control
Procedure: 51 miRNAs were differentially expressed between the two groups.
(§1) Quantitative real time-PCR (qRT-PCR) was performed with the TaqMan method (Applied Biosystems), according to the manufacturer's instructions, and analyzed with the 7900HT Sequence Detection System (Applied Biosystems). The appropriate TaqMan probes for mRNA, miRNA, and pri-miRNA quantification were purchased from Applied Biosystems, and all reactions were performed in triplicate. The following probes were used: hsa-miR-9-5p (000583), hsa-mir-9-1 (Hs03303201_pri), hsa-miR-9-2 (Hs03303202_pri), hsa-mir-9-3 (Hs03293595_pri), CD44 (Hs01075861_ml), IGF2BP3 (Hs00559907_g1). Simultaneous quantification of ornithine decarboxylase antizyme 1 (OAZ1), or GAPDH mRNAs were used as a reference for mRNA data normalization, while small endogenous nucleolar RNA U44/U48, or U6 were used for miRNA normalization. The relative expression levels were calculated by the comparative cycle threshold (Ct) method (User Bulletin #2; Applied Biosystems). Expression analyses of pre-miRNA was performed with SYBR green PCR master mix (Applied Biosystems) and normalized for U6 RNA. All primers used for amplification steps are listed in the Supplementary materials and methods.

histone 3 and 4 = assay: Immunoblot of acetyl histone H3 and H4 in MM.1S cells; format: cell-based, human; conditions: 0.1 μM, 24-hr
Procedure: Growth inhibitory and pro-apoptotic properties of AR-42 as a single agent treatment agent have been reported previously in numerous malignancies, including MM. Because of the potent immunomodulatory effects observed with classical pan-HDACi's, immunology-related gene networks altered upon AR-42 treatment in MM cells were investigated using nCounter technology to analyze the effects of AR-42 on the expression of 511 human genes in MM.1S cells following 24-hr treatment with 0.1 μM AR-42.
(§2) Cells were harvested by centrifugation, washed with PBS and lysed using buffer composed of 50 mM Tris (pH 7.5), 150 mM NaCl, 10% glycerol, 1.0% NP-40, 0.1% SDS, supplemented with protease and phosphatase inhibitors. Protein concentrations were estimated by Bradford assay and equivalent quantities of the lysates were resolved on 4-20% Tris-HCl SDS-PAGE TGX gels (Bio-Rad). Proteins were transferred to nitrocellulose membranes and stained for acetyl-histone H3 (Milipore), acetyl-histone H4 (Milipore), IGF2BP1 (Cell Signaling Technology), IGF2BP3 (IMP-3, Santa Cruz Biotechnology), CD44 (Santa Cruz Biotechnology), CD48 (Abcam), Drosha (Cell Signaling Technology), or glyceraldehyde 3-phosphate dehydrogenase (GAPDH, Cell Signaling Technology), followed by anti-mouse, or anti-rabbit IgG-HRP (GE Healthcare). Signals were developed using Pierce ECL Western Blotting Substrate (Thermo Fisher Scientific).

CD44 mRNA = CD44 mRNA by qRT-PCR in MM cells; format: cell-based, human
Procedure: Reduction of CD44 mRNA and protein persisted for 48 hours after treatment (FIGS. 2C-2D and data not shown).
as §1

CD48 = CD48 protein and mRNA expression in MM.1S cells; format: cell-based, human; conditions: 48 hours
Procedure: The down-regulation of CD44 cell surface expression was also observed by flow cytometry in all MM cell lines tested expressing detectable CD44 levels (FIG. 1D, FIGS. 2E-2F and data not shown).
as §2

CC(C)[C@H](C(=O)Nc1ccc(C(=O)NO)cc1)c1ccccc1 [AR-42, (S)-N-hydroxy-4-(3-methyl-2-phenylbutanamido)benzamide]
pIC50 (MM cells): 6.70 | miR-9-5p expression levels (miR-9-5p): increased | hyperacetylation of histone 3 and 4 (histone 3 and 4): detectable hyperacetylation | persistence of reduction of CD44 mRNA and protein after treatment (CD44 mRNA): 48 h | CD44 mRNA (CD44 mRNA; 24-hr treatment, dose-dependent, vs DMSO control): consistently downregulated | CD48 protein and mRNA levels (CD48): consistent up-regulation
